Like-named read-outs stand apart in the source and are kept apart here.
Legend:
[1] = tested on: Salmonella typhimurium TA 1537; assay: Ames bacterial reverse mutation assay, pre-incubation method; type: cell-based
[2] = tested on: Salmonella typhimurium TA 98; assay: as above; type: cell-based
[3] = tested on: Salmonella typhimurium TA 100; type: cell-based; conditions: plate incorporation
[4] = tested on: Salmonella typhimurium TA 102; assay: Ames bacterial reverse mutation assay, plate incorporation method; type: cell-based
[5] = tested on: Salmonella typhimurium TA 100; type: cell-based; conditions: pre-incubation
[6] = tested on: Salmonella typhimurium TA 98; assay: Ames bacterial reverse mutation assay, plate incorporation method; type: cell-based
[7] = tested on: Salmonella typhimurium TA 1537; assay: as above; type: cell-based
[8] = tested on: Salmonella typhimurium TA 1535; type: cell-based; conditions: plate incorporation
[9] = tested on: Salmonella typhimurium TA 1535; type: cell-based; conditions: pre-incubation
[10] = tested on: Salmonella typhimurium TA 102; assay: Ames bacterial reverse mutation assay, pre-incubation method; type: cell-based
plasma protein = conditions: human plasma; 1 µM; mean ± SE
in vitro = conditions: both, human, plasma, pH 7.4
[11] = +S9, positive control 0.0025 mg/plate
[12] = +S9, positive control 0.01 mg/plate
[13] = −S9, positive control 0.05 mg/plate
[14] = −S9, positive control 0.01 mg/plate
[15] = −S9, positive control 4 µL/plate

Question: Which “Mean plate counts (revertant colonies)” value [1, 11] does the source give for `Nc1ccc2cc3ccccc3cc2c1` [2-aminoanthracene, reference compound] here?
Answer: The value was 125.0±5.0.

Question: And the “Mean plate counts (revertant colonies)” value [2, 11]?
Answer: Its value is 958.0±83.6.

Question: What about the “Mean plate counts (revertant colonies)” value [3, 11] of the same compound?
Answer: The value was 1042.0±61.3.

Question: What about the “Mean plate counts (revertant colonies)” value [4, 12] of the same compound?
Answer: The value was 1716.7±134.6.

Question: And the “Mean plate counts (revertant colonies)” value [5, 11]?
Answer: Its value is 1118.0±42.6.

Question: And the “Mean plate counts (revertant colonies)” value [6, 11]?
Answer: Its value is 741.3±63.8.

Question: What about the “Mean plate counts (revertant colonies)” value [7, 11] of the same compound?
Answer: Its value is 133.3±8.1.

Question: What about the “Mean plate counts (revertant colonies)” value [8, 11] of the same compound?
Answer: Its value is 150.0±12.5.

Question: And the “Mean plate counts (revertant colonies)” value [9, 11]?
Answer: The value was 132.7±9.9.

Question: What about the “Mean plate counts (revertant colonies)” value [10, 12] of the same compound?
Answer: Its value is 1395.3±153.1.

Question: Which “Mean plate counts (revertant colonies)” value [1, 13] does the source give for `Nc1ccc([N+](=O)[O-])cc1N` [4-NOPD, 4-nitro-o-phenylenediamine, reference compound] here?
Answer: The value was 120.0±12.0.

Question: And the “Mean plate counts (revertant colonies)” value [2, 14]?
Answer: The value was 674.0±34.7.

Question: And the “Mean plate counts (revertant colonies)” value [6, 14]?
Answer: The value was 296.0±8.0.

Question: What about the “Mean plate counts (revertant colonies)” value [7, 13] of the same compound?
Answer: The value was 107.0±6.2.

Question: For `COc1ccc(CCN(C)CCCC(C#N)(c2ccc(OC)c(OC)c2)C(C)C)cc1OC` (stereo not shown) [Verapamil, reference compound], which “fb (bound fraction)” value (plasma protein) is on record?
Answer: Its value is 0.907 ± 0.007.

Question: Which fraction unbound at 4 h, 1 µM (in vitro) does the source give for `CC(=O)CC(c1ccccc1)c1c(O)c2ccccc2oc1=O` (stereo not shown) [Warfarin, reference compound] here?
Answer: The fraction unbound at 4 h, 1 µM was 0.035 ± 0.003.

Question: Which “Mean plate counts (revertant colonies)” value [4, 15] does the source give for `COS(C)(=O)=O` [methyl methanesulphonate, methyl methanesulfonate, reference compound] here?
Answer: Its value is 2510.7±123.6.

Question: What about the “Mean plate counts (revertant colonies)” value [10, 15] of the same compound?
Answer: The value was 1238.7±126.0.

Question: Which “Mean plate counts (revertant colonies)” value [3, 14] does the source give for `[N-]=[N+]=[N-].[Na+]` [sodium azide, reference compound] here?
Answer: The value was 870.7±39.3.

Question: What about the “Mean plate counts (revertant colonies)” value [5, 14] of the same compound?
Answer: The value was 1181.3±50.6.

Question: And the “Mean plate counts (revertant colonies)” value [8, 14]?
Answer: The value was 966.7±12.2.

Question: And the “Mean plate counts (revertant colonies)” value [9, 14]?
Answer: The value was 974.7±41.1.
